Source: patent publication US5571816A, “Pyrimidines” (Hoechst Aktiengesellschaft, priority 1992, dated 1996)
Counter-ions that a name gives are not always drawn. Like-named read-outs stand apart in the source and are kept apart here. Values belong to the molecule of their own block, whether it stands above or below them.

Experiments:
[1] = tested on: serum lipoproteins; experiment: Effect on serum lipoproteins of normolipemic male rats in a subchronic experiment; assay type: in vivo; conditions: Rattus norvegicus, po, by stomach tube, 7 administrations; for change in vivo at 30 mg/kg: 30 mg/kg/day; for change in vivo at 3 mg/kg: 3 mg/kg/day; for change in vivo at 10 mg/kg: 10 mg/kg/day
Description: 3. In vivo, the increased LDL receptor activity in experimental animals is reflected by reduction in the lipoprotein fractions which can be metabolized by the LDL receptor (apoB/E receptor), i.e. a reduction in the LDL and VLDL levels is observed. The following test was carried out:
Effect on serum lipoproteins of normolipemic male rats in a subchronic experiment
Groups of in each case 10 male rats of the HOE: WISKf (SPF 71) strain with an initial weight above 180 g received once a day (in the morning) the test product or the comparison product in 1% aqueous ®Tylose MH 300 solution by stomach tube (0.5 ml/100 g of body weight); the control group in each case received only the vehicle. The last (7th) administration took place 24 hours before removal of blood and sacrifice. There was free access to food and water during the test. The food was withdrawn 24 hours before the removal of blood.
The serum from all 10 rats in a group was pooled for the analysis of the serum lipoproteins. The serum lipoproteins were separated with a preparative ultracentrifuge (KONTRON TGA 65, Rotor BECKMAN 50.4 Ti).
The following conditions specified by Koga, S., Horwitz, D. L., and Scanu, A. M., Journal of Lipid Research 10, 577 (1969) and Havel, R. J., Eder, H. A., and Bragdon, H. H., J. Clin. Invest. 34, 1345 (1955) were used to separate VLDL and LDL: 1. VLDL: Density<1.006, 40,000 rpm for 16 hours 2. LDL: Density 1.006-1.04, 40,000 rmp for 16 hours
Test kits from BOEHRINGER/Mannheim were used for the enzymatic determination of cholesterol and triglycerides in the separated lipoprotein fractions (cf. Siedel, J., Schlumberger, H., Klose, S., Ziegenhorn, J. and Wahlefeld, A. W., J. Clin. Chem. Clin. Biochem. 19, 838 (1981) and Wahlefeld, A. W., in: H. O. Bergmeier: Methoden der enzymatischen Analyse (Methods of Enzymatic Analysis), 2nd edition, Volume II, Verlag Chemie 1974, page 1878). The proteins were determined by the method of Lowry (Lowry, O. H., Roseborough, N. H., Farr, A. L. and Randell, R. J., J. Biol. Chem. 193, 265 (1951)).
Clofibrate was used as comparison product.

[2] = Solubility in water of salts (and free bases); assay type: physicochemical; conditions: for solubility: water
[3] = read-out: Serum LDL cholesterol, % change from control at end of treatment
[4] = read-out: Serum LDL protein, % change from control at end of treatment
[5] = read-out: Serum VLDL cholesterol, % change from control at end of treatment
[6] = read-out: Serum VLDL protein, % change from control at end of treatment
[7] = read-out: Serum VLDL triglycerides, % change from control at end of treatment
[8] = Table 2, salts of compounds I, temp. by No. [°C]: 1 25.5, 2 23.0, 3 22.4, 4 22.4, 5 22.0, 6 25.0, 7 25.5, 8 25.5, 9 25.5, 10 23.5, 11 23.5, 12 25.0, 13 24.0, 14 23.0, 15 22.0, 16 24.5, 17 22.5, 18 22.0
[9] = Table 2, salts of compounds I, temp. by No. [°C]: 1 25.5, 2 23.0, 3 22.4, 4 22.4, 5 22.0, 6 25.0, 7 25.5, 8 25.5, 9 25.5, 10 23.5, 11 23.5, 12 25.0, 13 24.0, 14 23.0, 15 22.0, 16 24.5, 17 22.5, 18 22.0, read-out: Solubility in water, Concentration in % by wt.
[10] = Table 1, N-H analogs, temp. by No. [°C]: 1 25.0, 2 23.0, 3 26.2, 4 25.1, 5 25.2, 6 24.1, 7 24.5, 8 24.2, 9 24.2, 10 25.7, 11 25.8
[11] = Table 1, N-H analogs, temp. by No. [°C]: 1 25.0, 2 23.0, 3 26.2, 4 25.1, 5 25.2, 6 24.1, 7 24.5, 8 24.2, 9 24.2, 10 25.7, 11 25.8, read-out: Solubility in water, Concentration in % by wt.
[12] = Table 1, N-H analogs, temp. by No. [°C]: 1 25.0, 2 23.0, 3 26.2, 4 25.1, 5 25.2, 6 24.1, 7 24.5, 8 24.2, 9 24.2, 10 25.7, 11 25.8, read-out: Solubility in water, Molarity × 10^-3
[13] = Table 2, salts of compounds I, temp. by No. [°C]: 1 25.5, 2 23.0, 3 22.4, 4 22.4, 5 22.0, 6 25.0, 7 25.5, 8 25.5, 9 25.5, 10 23.5, 11 23.5, 12 25.0, 13 24.0, 14 23.0, 15 22.0, 16 24.5, 17 22.5, 18 22.0, nitrate

- 1 part by mass dissolves in ... parts by H2O [2, 8]: 6.8 parts by H2 O
- solubility [2, 9]: 128 mg/mL
Compound: CCN(C(=O)c1cnc(N2CC(C)NC2=O)nc1N)c1cccc(C(F)(F)F)c1 (stereo not drawn) [Example 58, 4-amino-2-(4-methyl-2-oxo-1-imidazolidinyl)pyrimidine-5-carboxylic acid N-ethyl-N-(3-trifluoromethylphenyl)amide hydrochloride]
- change in vivo at 30 mg/kg [1, 3]: 46%
- change in vivo at 30 mg/kg [1, 4]: -25%
- change in vivo at 30 mg/kg [1, 5]: -59%
- change in vivo at 30 mg/kg [1, 6]: -22%
- change in vivo at 30 mg/kg [1, 7]: -40%

- 1 part by mass dissolves in ... parts of H2O [2, 10]: 554 parts of H2 O
- solubility [2, 11]: 1.8 mg/mL
- solubility [2, 12]: 3.92 mM
Compound: COc1ccc(NC(=O)c2cnc(N3CC(C)(C)NC3=O)nc2N)cc1C(F)(F)F [No. 7 (Table 1), reference compound]

- 1 part by mass dissolves in ... parts by H2O [2, 8]: 72.7 parts by H2 O
- solubility [2, 9]: 13.6 mg/mL
Compound: CN(C(=O)c1cnc(N2CC(C)(C)NC2=O)nc1N)c1cc(C(F)(F)F)ccc1F [Example 28]
- change in vivo at 3 mg/kg [1, 3]: 1%
- change in vivo at 3 mg/kg [1, 4]: -26%
- change in vivo at 3 mg/kg [1, 5]: -2%
- change in vivo at 3 mg/kg [1, 6]: -29%
- change in vivo at 10 mg/kg [1, 3]: -33%
- change in vivo at 10 mg/kg [1, 4]: -68%
- change in vivo at 10 mg/kg [1, 5]: -74%
- change in vivo at 10 mg/kg [1, 6]: 41%
- change in vivo at 10 mg/kg [1, 7]: 46%
- change in vivo at 30 mg/kg [1, 3]: -75%
- change in vivo at 30 mg/kg [1, 4]: -62%
- change in vivo at 30 mg/kg [1, 5]: -79%
- change in vivo at 30 mg/kg [1, 6]: -49%
- change in vivo at 30 mg/kg [1, 7]: -56%

- 1 part by mass dissolves in ... parts of H2O [2, 10]: 75 parts of H2 O
- solubility in water, in words ([2]; categories of the Deutsches Arzneibuch): sparingly soluble
- solubility [2, 11]: 13.2 mg/mL
- solubility [2, 12]: 28.9 mM
Compound: COc1ccc(C(F)(F)F)cc1NC(=O)c1cnc(N2CC(C)(C)NC2=O)nc1N [No. 6 (Table 1), reference compound]

- 1 part by mass dissolves in ... parts by H2O [2, 8]: < 9 parts by H2 O
- solubility [2, 9]: > 100 mg/mL
Compound: C=CC1CN(c2ncc(C(=O)N(C)c3cccc(C(F)(F)F)c3)c(N)n2)C(=O)N1 (stereo not drawn) [Example 72, 4-amino-2-(4-vinyl-2-oxo-1-imidazolidinyl)pyrimidine-5-carboxylic acid N-methyl-N-(3-trifluoromethylphenyl)amide hydrochloride]

- 1 part by mass dissolves in ... parts by H2O [2, 8]: 28.6 parts by H2 O
- solubility [2, 9]: 33.8 mg/mL
Compound: CC(C)N(C(=O)c1cnc(N2CC(C)(C)NC2=O)nc1N)c1ccc(F)c(C(F)(F)F)c1 [Example 35]
- change in vivo at 30 mg/kg [1, 3]: 46%
- change in vivo at 30 mg/kg [1, 4]: -35%
- change in vivo at 30 mg/kg [1, 5]: -79%
- change in vivo at 30 mg/kg [1, 6]: -69%
- change in vivo at 30 mg/kg [1, 7]: -55%

- 1 part by mass dissolves in ... parts by H2O [2, 8]: 24.7 parts by H2 O
- solubility [2, 9]: 38.9 mg/mL
Compound: CC(C)N(C(=O)c1cnc(N2CC(C)(C)NC2=O)nc1N)c1cccc(C(F)(F)F)c1 [Example 3, 4-amino-2-(4,4-dimethyl-2-oxo-1-imidazolidinyl)pyrimidine-5-carboxylic acid N-isopropyl-N-(3-trifluoromethylphenyl)amide]

- solubility [2, 9]: 10.1 mg/mL
Compound: CCN(C(=O)c1cnc(N2CC(C)(C)NC2=O)nc1N)c1cc(C(F)(F)F)ccc1F [Example 32]
- change in vivo at 10 mg/kg [1, 3]: -54%
- change in vivo at 10 mg/kg [1, 4]: -36%
- change in vivo at 10 mg/kg [1, 5]: -85%
- change in vivo at 10 mg/kg [1, 6]: -73%
- change in vivo at 10 mg/kg [1, 7]: -68%
- change in vivo at 30 mg/kg [1, 3]: -76%
- change in vivo at 30 mg/kg [1, 4]: -49%
- change in vivo at 30 mg/kg [1, 5]: -100%
- change in vivo at 30 mg/kg [1, 6]: -39%
- change in vivo at 30 mg/kg [1, 7]: -80%

- solubility [2, 11]: 1 mg/mL
- solubility [2, 12]: 2.03 mM
Compound: CC1(C)CN(c2ncc(C(=O)Nc3ccc(Cl)c(C(F)(F)F)c3)c(N)n2)C(=O)N1 [No. 5 (Table 1), reference compound]

- 1 part by mass dissolves in ... parts of H2O [2, 10]: 217 parts of H2 O
- solubility [2, 11]: 4.6 mg/mL
- solubility [2, 12]: 9.91 mM
Compound: CC1(C)CN(c2ncc(C(=O)Nc3cc(C(F)(F)F)ccc3Cl)c(N)n2)C(=O)N1 [No. 4 (Table 1), reference compound]

- 1 part by mass dissolves in ... parts by H2O [2, 13]: 57.5 parts by H2 O
- Solubility in water, Concentration in % by wt. [2, 13]: 1.71 % by wt.
- solubility ([2]; temperature not stated, read-out: soluble in a concentration in water): 17 mg/mL
Compound: CCN(C(=O)c1cnc(N2CC(C)(C)NC2=O)nc1N)c1cc(C(F)(F)F)ccc1F [Example 60, 4-amino-2-(4,4-dimethyl-2-oxo-1-imidazolidinyl)pyrimidine-5-carboxylic acid N-ethyl-N-(2-fluoro-5-trifluoromethylphenyl)amide nitrate]

- 1 part by mass dissolves in ... parts of H2O [2, 10]: 277 parts of H2 O
- solubility [2, 11]: 3.6 mg/mL
- solubility [2, 12]: 8.38 mM
Compound: CC1NC(=O)N(c2ncc(C(=O)Nc3cccc(C(F)(F)F)c3)c(N)n2)C1C (stereo not drawn) [No. 11 (Table 1), reference compound]

- 1 part by mass dissolves in ... parts by H2O [2, 8]: 13.5 parts by H2 O
- solubility [2, 9]: 68.9 mg/mL
Compound: CCN(C(=O)c1cnc(N2CC(C)(C)NC2=O)nc1N)c1cccc(C(F)(F)F)c1 [Example 1, 4-amino-2-(4,4-dimethyl-2-oxo-1-imidazolidinyl)pyrimidine-5-carboxylic acid N-ethyl-N-(3-trifluoromethylphenyl)amide]

- 1 part by mass dissolves in ... parts by H2O [2, 8]: 15.3 parts by H2 O
- solubility [2, 9]: 61.3 mg/mL
Compound: CC(C)CC(C)N(C(=O)c1cnc(N2CC(C)(C)NC2=O)nc1N)c1cccc(C(F)(F)F)c1 (stereo not drawn) [Example 38]

- 1 part by mass dissolves in ... parts by H2O [2, 8]: 51.3 parts by H2 O
- solubility [2, 9]: 18.7 mg/mL
Compound: CCCCCN(C(=O)c1cnc(N2CC(C)(C)NC2=O)nc1N)c1cccc(C(F)(F)F)c1 [Example 47, 4-amino-2-(4,4-dimethyl-2-oxo-1-imidazolidinyl)pyrimidine-5-carboxylic acid N-pentyl-N-(3-trifluoromethylphenyl)amide hydrochloride]

- 1 part by mass dissolves in ... parts of H2O [2, 10]: 781 parts of H2 O
- solubility [2, 11]: 1.3 mg/mL
- solubility [2, 12]: 2.59 mM
Compound: CCCC1(C)CN(c2ncc(C(=O)Nc3cc(C(F)(F)F)ccc3Cl)c(N)n2)C(=O)N1 (stereo not drawn) [No. 8 (Table 1), reference compound]
